According to ChEMBL document CHEMBL1201862, “PubChem BioAssay data set” (2004):
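Grown in 96-well plates, cells were treated for 48 hours with each compound at five concentrations. Insufficient inhibition: endpoint recorded as highest concentration tested. At the GI50, growth is halved.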 Active and inactive are the calls of the source. No stated cut-off is given here; in the data, active = GI50 up to about 1.1 µM and inactive = higher.

Experiments:
Experiment in all cases: growth of human tumour cells (NCI), 48 h
DMS-114 = tested on: DMS-114
DMS-273 = tested on: DMS-273
LXFL 529 = tested on: LXFL 529
SNB-78 = tested on: SNB-78
XF498 = tested on: XF498
KM-20L2 = tested on: KM-20L2
M19-MEL = tested on: M19-MEL
RXF 631 = tested on: RXF 631
HOP-18 = tested on: HOP-18

Row | Compound | GI50 (DMS-114) | GI50 (DMS-273) | GI50 (LXFL 529) | GI50 (SNB-78) | GI50 (XF498) | GI50 (KM-20L2) | GI50 (M19-MEL) | GI50 (RXF 631) | GI50 (HOP-18)
1 | O=C(O)CS [THIOGLYCOLIC ACID] | > 100 µM (inactive) | > 100 µM (inactive) | > 100 µM (inactive) | > 100 µM (inactive) | > 100 µM (inactive) | > 100 µM (inactive) | > 100 µM (inactive) |  | 
2 | Cc1ccc(C(=O)N(C2CCCCC2)C2CCCCC2)cc1/N=N/N(C)C |  | 17.1 µM (inactive) | 14.6 µM (inactive) | 15.8 µM (inactive) |  |  | 19.1 µM (inactive) |  | 
3 | CN(C)c1snc2c1c(=O)n(C)c(=O)n2C | > 100 µM (inactive) | > 100 µM (inactive) | > 100 µM (inactive) |  | > 100 µM (inactive) | > 100 µM (inactive) | > 100 µM (inactive) | > 100 µM (inactive) | > 100 µM (inactive)
4 | CCOc1ccc(NC2=NC(=O)C(CC(=O)Nc3ccc(Cl)cc3Cl)S2)cc1 (stereo not given) | > 100 µM (inactive) | > 100 µM (inactive) | > 100 µM (inactive) | > 100 µM (inactive) | > 100 µM (inactive) | > 100 µM (inactive) | > 100 µM (inactive) | > 100 µM (inactive) | 
5 | FC(F)(F)c1ccccc1C1SCc2nc3ccccc3n21 (stereo not given) | 33 µM (inactive) | 38 µM (inactive) | 99.8 µM (inactive) | > 100 µM (inactive) |  |  | 43.3 µM (inactive) |  | > 100 µM (inactive)
6 | CCOC(=O)N[C@H]1CCc2cc(O)c(OC)c(OC)c2-c2ccc(SC)c(=O)cc21 | 0.0193 µM (active) | 0.0149 µM (active) | < 0.0122 µM (active) | < 0.01 µM (active) | 0.0261 µM (active) | 0.0128 µM (active) | 0.0189 µM (active) | 0.0207 µM (active) | 
7 | CCOC(=O)C1C(c2ccccc2)=C(c2ccccc2)C(c2ccccc2)=C1c1ccccc1 | 27.8 µM (inactive) | 31.3 µM (inactive) | 41.8 µM (inactive) | 27.5 µM (inactive) | 21.9 µM (inactive) | > 100 µM (inactive) | 41.4 µM (inactive) | 50.5 µM (inactive) | 23.7 µM (inactive)
8 | CC(=O)C1=CCC2c3[nH]c4ccccc4c3CCN2C1 (stereo not given) |  | 34.5 µM (inactive) | 66.8 µM (inactive) | 32.1 µM (inactive) | 62.5 µM (inactive) | 21 µM (inactive) | > 100 µM (inactive) | 45.4 µM (inactive) | > 100 µM (inactive)
9 | COC(=O)C(C(=O)C(=O)Nc1nc2ccc(OC)cc2s1)c1cnc2ccccc2n1 (stereo not given) |  |  | > 100 µM (inactive) | > 100 µM (inactive) | > 100 µM (inactive) | > 100 µM (inactive) | > 100 µM (inactive) |  | 
10 | CN(C)CCC(=O)N1C/C(=C\c2ccc(Cl)c(Cl)c2)C(=O)/C(=C/c2ccc(Cl)c(Cl)c2)C1 | 0.452 µM (active) | 0.15 µM (active) | 0.211 µM (active) | 0.476 µM (active) | 1.12 µM (active) | 0.577 µM (active) | 0.427 µM (active) | 0.455 µM (active) | 1.02 µM (active)
11 | CCN1C(=O)C/C(=C\C(C)=O)Nc2ccccc21 | > 100 µM (inactive) | > 100 µM (inactive) | > 100 µM (inactive) | > 100 µM (inactive) | > 100 µM (inactive) |  | > 100 µM (inactive) |  | 
12 | O=C(O)c1ccc(/N=N/c2cc(S(=O)(=O)O)c3cccnc3c2O)cc1 | > 100 µM (inactive) | > 100 µM (inactive) |  | > 100 µM (inactive) | > 100 µM (inactive) | > 100 µM (inactive) | > 100 µM (inactive) |  | 
13 | CCCCOC(=O)NC(=O)c1cn(CCSCCOC(=O)NCCCCCCNC(=O)OCCSCCn2cc(C(=O)NC(=O)OCCCC)c(=O)[nH]c2=O)c(=O)[nH]c1=O | 93.8 µM (inactive) | 95.5 µM (inactive) | 27 µM (inactive) | 90.4 µM (inactive) |  | > 100 µM (inactive) | > 100 µM (inactive) | 38.4 µM (inactive) | 31.6 µM (inactive)
14 | O=C(N[C@H](CO)[C@H](O)c1ccc([N+](=O)[O-])cc1)C(Cl)Cl [CHLORAMPHENICOL] | > 100 µM (inactive) | > 100 µM (inactive) | > 100 µM (inactive) |  |  | > 100 µM (inactive) | > 100 µM (inactive) |  | 
15 | CN(C)/N=N/c1[nH]cnc1C(N)=O [DACARBAZINE] | 71.3 µM (inactive) | 12.8 µM (inactive) | 98.2 µM (inactive) | 63.2 µM (inactive) | 21.8 µM (inactive) | 53.6 µM (inactive) | 64.4 µM (inactive) | 54.1 µM (inactive) | 15.5 µM (inactive)
16 | CCOC(=O)N1c2c(ccn2C)-c2ccn(C)c2N1C(=O)OCC | > 10 µM (inactive) |  | 17.2 µM (inactive) |  | 17 µM (inactive) | 14.6 µM (inactive) | 26.4 µM (inactive) | 18.9 µM (inactive) | 
17 | O=C(Nc1nc2ncn(CCNCCn3cnc4nc(NC(=O)c5ccccc5)[nH]c(=O)c43)c2c(=O)[nH]1)c1ccccc1 |  | > 100 µM (inactive) | > 100 µM (inactive) | > 100 µM (inactive) | > 100 µM (inactive) | > 100 µM (inactive) | > 100 µM (inactive) |  | > 100 µM (inactive)
18 | COC(=O)C1=C(O)c2cc(OC)c(OC)c(OC)c2C(c2ccc3c(c2)OCO3)[C@@H]1C(=O)OC (stereo not given in full) | 2.4 µM (inactive) | 3.02 µM (inactive) | 3.08 µM (inactive) | 15.1 µM (inactive) |  | 2.36 µM (inactive) |  | 5.82 µM (inactive) | 23.1 µM (inactive)
19 | Cn1c2c(cc(-c3ccccc3)c1=O)COc1ccccc1-2 | 15.4 µM (inactive) | 19.5 µM (inactive) | 31.4 µM (inactive) | 33.7 µM (inactive) | 8.04 µM (inactive) | 25.1 µM (inactive) | 25.6 µM (inactive) |  | > 100 µM (inactive)
20 | N=CCCN(CCC=N)c1ccc(/C=C2\CN(NC(=O)c3ccc(Cl)cc3)C(c3ccccc3)=N2)cc1 | > 100 µM (inactive) | > 100 µM (inactive) | > 100 µM (inactive) | > 100 µM (inactive) |  | > 100 µM (inactive) |  | > 100 µM (inactive) | > 100 µM (inactive)
21 | Cc1ccc(-c2c(N)nc(NC#N)nc2CCC(=O)Nc2ccccc2[N+](=O)[O-])cc1 | > 100 µM (inactive) | > 100 µM (inactive) | > 100 µM (inactive) | > 100 µM (inactive) |  | > 100 µM (inactive) | > 100 µM (inactive) |  | > 100 µM (inactive)
22 | COC(=O)[C@@]12CC(C(C)C)[C@H]3CC(C(=O)C=C1OC)[C@H]32 (stereo not given in full) | > 100 µM (inactive) | > 100 µM (inactive) | > 100 µM (inactive) | > 100 µM (inactive) | > 100 µM (inactive) | > 100 µM (inactive) | > 100 µM (inactive) | > 100 µM (inactive) | > 100 µM (inactive)
23 | C[C@@H]1O[C@@H](O[C@H]2[C@H](Oc3cc(O)c4c(=O)cc(-c5ccc(O)cc5)oc4c3)O[C@H](CO)[C@@H](O)[C@@H]2O)[C@H](O)[C@H](O)[C@H]1O [RHOIFOLIN] | > 100 µM (inactive) | > 100 µM (inactive) | > 100 µM (inactive) | > 100 µM (inactive) | > 100 µM (inactive) | > 100 µM (inactive) | > 100 µM (inactive) |  | > 100 µM (inactive)
